Measurements published in patent US10105367B2, “Therapeutic thiophene-, furan-, and pyridine-fused azolopyrimidin-5-(6h)-ones” (Dart Neuroscience (Cayman) Ltd., priority 2012, dated 2018).
Several values for one entry are separate records, joined by “and”; a condition that tells them apart may be missing. Identical values can stand only once.

Biological target: human PDE1B (Homo sapiens (Human), UniProt Q01064)
Assay: PDE1B inhibitory assay (IMAP TR-FRET)
Conditions: PDE1B pIC50, negative log of half-maximal molar inhibitory concentration; 200 nM FAM-cAMP, Calmodulin, CaCl2
Description: PDE1B inhibition was determined by an IMAP TR-FRET assay.
After a brief centrifugation, the plates were incubated for 30 minutes at room temperature. The assay was terminated by adding 5 μL IMAP binding reagent/Tb complex (Molecular Devices, Sunnyvale, Calif.) to each well.
Plates were incubated 1 hour at room temperature and read on a Viewlux multimode plate reader (Perkin Elmer). The instrument was set to excite using the DUG11 filter and measure using 490/10 nm and 520/10 nm filters. Ratios of acceptor and donor were then calculated.
For IC50 calculations, the values of % efficacy versus a series of compound concentrations were then plotted using non-linear regression analysis of sigmoidal dose-response curves generated with the equation Y=B+(T−B)/1+10((Log EC50−X)×Hill Slope), where Y=percent activity, B=minimum percent efficacy, T=maximum percent efficacy, X=logarithm of compound and Hill Slope=slope factor or Hill coefficient. The IC50 value was determined by the concentration causing a half-maximal percent efficacy.

Question: `COc1ccc(Cn2c(=O)n3ncnc3c3cc(CN(C)C4CCOCC4)cnc32)cc1` [Example 237] was tested. Which IC50 did it give?
Answer: Its IC50 is 1000 to 10000 nM.

Question: With `COCCN1CCN(Cc2cnc3c(c2)c2ncnn2c(=O)n3Cc2ccc(OC)cc2)CC1` [Example 238] as the compound, how does the IC50 read?
Answer: Its IC50 is 1000 to 10000 nM.

Question: With `COCCN(Cc1cnc2c(c1)c1ncnn1c(=O)n2Cc1ccc(OC)cc1)C(C)C` [Example 239] as the compound, how does the IC50 read?
Answer: The IC50 was 100 to 1000 nM.

Question: Which IC50 does the source give for `COc1ccc(Cn2c(=O)n3ncnc3c3ncc(CN4CCN(C)CC4)cc32)cc1` [Example 240] here?
Answer: Its IC50 is 1000 to 10000 nM.

Question: For `COc1ccc(Cn2c(=O)n3ncnc3c3ncc(CN4CCOCC4)cc32)cc1` [Example 241], which IC50 is on record?
Answer: The IC50 was 1000 to 10000 nM.

Question: For `COc1ccc(Cn2c(=O)n3ncnc3c3ncc(CN4CCCCC4)cc32)cc1` [Example 242], which IC50 is on record?
Answer: Its IC50 is 1000 to 10000 nM.

Question: Which IC50 does the source give for `COc1ccc(Cn2c(=O)n3ncnc3c3ncc(CN4CCSCC4)cc32)cc1` [Example 243] here?
Answer: The IC50 was 1000 to 10000 nM.

Question: For `COc1ccc(Cn2c(=O)n3ncnc3c3ncc(CN4C[C@@H](C)O[C@@H](C)C4)cc32)cc1` [Example 244], which IC50 is on record?
Answer: The IC50 was 1000 to 10000 nM.

Question: How did the IC50 turn out when `COCCN(C)Cc1cnc2c(c1)c1ncnn1c(=O)n2Cc1ccc(OC)cc1` [Example 245] was run?
Answer: The IC50 was 100 to 1000 nM.

Question: Which IC50 does the source give for `COc1ccc(Cn2c(=O)n3ncnc3c3cc(CN4C[C@@H](C)OC[C@H]4C)cnc32)cc1` [Example 248] here?
Answer: Its IC50 is 100 to 1000 nM.

Question: `COc1ccc(Cn2c(=O)n3ncnc3c3cc(CN4CCNCC4)cnc32)cc1` [Example 249, 6-(4-Methoxybenzyl)-9-(piperazin-1-ylmethyl)pyrido[3,2-e][1,2,4]triazolo[1,5-c]pyrimidin-5(6H)-one] was tested. Which IC50 did it give?
Answer: The IC50 was 1000 to 10000 nM.

Question: Which IC50 does the source give for `COc1ccc(Cn2c(=O)n3ncnc3c3cc(CN4C[C@@H](C)N[C@@H](C)C4)cnc32)cc1` [Example 250] here?
Answer: Its IC50 is 1000 to 10000 nM.

Question: For `COc1ccc(Cn2c(=O)n3ncnc3c3cc(CN4CCN(CC5CCOC5)CC4)cnc32)cc1` (stereo not drawn) [Example 251, 6-(4-Methoxybenzyl)-9-((4-((tetrahydrofuran-3-yl)methyl)piperazin-1-yl)methyl)pyrido[3,2-e][1,2,4]triazolo[1,5-c]pyrimidin-5(6H)-one], which IC50 is on record?
Answer: The IC50 was 1000 to 10000 nM.

Question: How did the IC50 turn out when `COc1ccc(Cn2c(=O)n3ncnc3c3cc(CN4CCN(S(C)(=O)=O)CC4)cnc32)cc1` [Example 252, 6-(4-methoxybenzyl)-9-((4-(methylsulfonyl)piperazin-1-yl)methyl)pyrido[3,2-e][1,2,4]triazolo[1,5-c]pyrimidin-5(6H)-one] was run?
Answer: The IC50 was 100 to 1000 nM.

Question: Which IC50 does the source give for `COc1ccc(Cn2c(=O)n3ncnc3c3cc(CN4CCN(C(=O)C(F)(F)F)CC4)cnc32)cc1` [Example 254] here?
Answer: The IC50 was 100 to 1000 nM.

Question: `COc1ccc(Cn2c(=O)n3ncnc3c3cc(CN4CCN(C(=O)C5CCOC5)CC4)cnc32)cc1` (stereo not drawn) [Example 255] was tested. Which IC50 did it give?
Answer: The IC50 was 100 to 1000 nM.

Question: For `COc1ccc(Cn2c(=O)n3ncnc3c3ccc(CN4CCOCC4)nc32)cc1` [Example 256, 6-(4-Methoxybenzyl)-8-(morpholinomethyl)pyrido[3,2-e][1,2,4]triazolo[1,5-c]pyrimidin-5(6H)-one], which IC50 is on record?
Answer: The IC50 was 1000 to 10000 nM.

Question: Which IC50 does the source give for `COc1ccc(Cn2c(=O)n3ncnc3c3ccc(CN4C[C@@H](C)O[C@@H](C)C4)nc32)cc1` [Example 257] here?
Answer: The IC50 was 100 to 1000 nM.

Question: With `COc1ccc(Cn2c(=O)n3ncnc3c3ccc(CNCC4(C)COC4)nc32)cc1` [Example 258] as the compound, how does the IC50 read?
Answer: The IC50 was 1000 to 10000 nM.

Question: With `COc1ccc(Cn2c(=O)n3ncnc3c3ccc(CN(C)CC4CCOC4)nc32)cc1` (stereo not drawn) [Example 259] as the compound, how does the IC50 read?
Answer: Its IC50 is 100 to 1000 nM.

Question: For `COc1ccc(Cn2c(=O)n3ncnc3c3ccc(CN(C)C4CC4)nc32)cc1` [Example 260], which IC50 is on record?
Answer: Its IC50 is 100 to 1000 nM.

Question: `COc1ccc(Cn2c(=O)n3ncnc3c3ccc(CN4CCN(S(C)(=O)=O)CC4)nc32)cc1` [Example 261] was tested. Which IC50 did it give?
Answer: Its IC50 is 100 to 1000 nM.

Question: How did the IC50 turn out when `COc1ccc(Cn2c(=O)n3ncnc3c3ccc(CNCc4ccccc4)nc32)cc1` [Example 262] was run?
Answer: The IC50 was 100 to 1000 nM.

Question: `COc1ccc(Cn2c(=O)n3ncnc3c3ccc(CNc4ccccc4)nc32)cc1` [Example 263] was tested. Which IC50 did it give?
Answer: Its IC50 is 100 to 1000 nM.

Question: Which IC50 does the source give for `COc1ccc(Cn2c(=O)n3ncnc3c3ccc(CN4Cc5ccccc5C4)nc32)cc1` [Example 264] here?
Answer: The IC50 was 100 to 1000 nM.

Question: For `COc1ccc(Cn2c(=O)n3ncnc3c3cc(C(C)=O)cnc32)cc1` [Example 265, 9-Acetyl-6-(4-methoxybenzyl)pyrido[3,2-e][1,2,4]triazolo[1,5-c]pyrimidin-5(6H)-one], which IC50 is on record?
Answer: Its IC50 is 100 to 1000 nM.

Question: How did the IC50 turn out when `COc1ccc(Cn2c(=O)n3ncnc3c3cc(C(O)CN4CCOCC4)cnc32)cc1` (stereo not drawn) [Example 267, 9-(1-Hydroxy-2-morpholinoethyl)-6-(4-methoxybenzyl)pyrido[3,2-e][1,2,4]triazolo[1,5-c]pyrimidin-5(6H)-one] was run?
Answer: The IC50 was 100 to 1000 nM.

Question: With `COc1ccc(Cn2c(=O)n3ncnc3c3cc(C(F)CN4CCOCC4)cnc32)cc1` (stereo not drawn) [Example 269, 9-(1-Fluoro-2-morpholinoethyl)-6-(4-methoxybenzyl)pyrido[3,2-e][1,2,4]triazolo[1,5-c]pyrimidin-5(6H)-one] as the compound, how does the IC50 read?
Answer: Its IC50 is 100 to 1000 nM.

Question: How did the IC50 turn out when `COc1ccc(Cn2c(=O)n3ncnc3c3cc(C(O)C(F)(F)F)cnc32)cc1` (stereo not drawn) [Example 271, 6-(4-Methoxybenzyl)-9-(2,2,2-trifluoro-1-hydroxyethyl)pyrido[3,2-e][1,2,4]triazolo[1,5-c]pyrimidin-5(6H)-one] was run?
Answer: The IC50 was 100 to 1000 nM.

Question: With `C[C@@H]1CN(Cc2cnc3c(c2)c2ncnn2c(=O)n3Cc2ccc(OC(F)(F)F)cc2)C[C@H](C)O1` [Example 273, 9-(((2S,6R)-2,6-Dimethylmorpholino)methyl)-6-(4-(trifluoromethoxy)benzyl)pyrido[3,2-e][1,2,4]triazolo[1,5-c]pyrimidin-5(6H)-one] as the compound, how does the IC50 read?
Answer: The IC50 was 100 to 1000 nM and 1000 to 10000 nM.

Question: How did the IC50 turn out when `Cc1cc(Cn2c(=O)n3ncnc3c3cc(CN4C[C@@H](C)O[C@@H](C)C4)cnc32)ccc1F` [Example 274] was run?
Answer: The IC50 was 100 to 1000 nM.

Question: With `C[C@@H]1CN(Cc2cnc3c(c2)c2ncnn2c(=O)n3Cc2ccc(F)cc2)C[C@H](C)O1` [Example 275] as the compound, how does the IC50 read?
Answer: Its IC50 is 100 to 1000 nM.

Question: Which IC50 does the source give for `COc1ccc(Cn2c(=O)n3ncnc3c3cc(CN4C[C@@H](C)O[C@@H](C)C4)cnc32)cc1F` [Example 276] here?
Answer: The IC50 was 100 to 1000 nM.

Question: `C[C@@H]1CN(Cc2cnc3c(c2)c2ncnn2c(=O)n3Cc2ccc(F)c(Br)c2)C[C@H](C)O1` [Example 278] was tested. Which IC50 did it give?
Answer: Its IC50 is 100 to 1000 nM.

Same assay, conditions: negative log of half-maximal molar inhibitory concentration; 200 nM FAM-cAMP, Calmodulin, CaCl2

Question: For `COc1ccc(Cn2c(=O)n3ncnc3c3cc(CN4CCN5C(=O)OCC5C4)cnc32)cc1` (stereo not drawn) [Example 246], which “PDE1B pIC50” value is on record?
Answer: Its value is over 7.

Question: For `COc1ccc(Cn2c(=O)n3ncnc3c3cc(CN4C[C@H](C)OC[C@@H]4C)cnc32)cc1` [Example 247], which “PDE1B pIC50” value is on record?
Answer: The value was over 7.

Question: For `COc1ccc(Cn2c(=O)n3ncnc3c3cc(CN4CCN(S(=O)(=O)N(C)C)CC4)cnc32)cc1` [Example 253], which “PDE1B pIC50” value is on record?
Answer: Its value is over 7.

Question: How did the “PDE1B pIC50” value turn out when `COc1ccc(Cn2c(=O)n3ncnc3c3cc(C(C)N4C[C@@H](C)O[C@@H](C)C4)cnc32)cc1` (stereo partly drawn) [Example 266, 9-(1-((2S,6R)-2,6-Dimethylmorpholino)ethyl)-6-(4-methoxybenzyl)pyrido[3,2-e][1,2,4]triazolo[1,5-c]pyrimidin-5(6H)-one] was run?
Answer: Its value is over 7.

Question: For `COc1ccc(Cn2c(=O)n3ncnc3c3cc(C(O)CN4C[C@@H](C)O[C@@H](C)C4)cnc32)cc1` (stereo partly drawn) [Example 268], which “PDE1B pIC50” value is on record?
Answer: Its value is over 7.

Question: With `COc1ccc(Cn2c(=O)n3ncnc3c3cc(C(F)CN4C[C@@H](C)O[C@@H](C)C4)cnc32)cc1` (stereo partly drawn) [Example 270] as the compound, how does the “PDE1B pIC50” value read?
Answer: The value was over 7.

Question: For `COc1ccc(Cn2c(=O)n3ncnc3c3cc(C(N4CCOCC4)C(F)(F)F)cnc32)cc1` (stereo not drawn) [Example 272, 6-(4-Methoxybenzyl)-9-(2,2,2-trifluoro-1-morpholinoethyl)pyrido[3,2-e][1,2,4]triazolo[1,5-c]pyrimidin-5(6H)-one], which “PDE1B pIC50” value is on record?
Answer: Its value is over 7.

Question: For `COc1ccc(Cn2c(=O)n3ncnc3c3cc(CN4C[C@@H](C)O[C@@H](C)C4)cnc32)c(F)c1` [Example 277], which “PDE1B pIC50” value is on record?
Answer: Its value is over 7.
